In patent US9108957B2 (MITSUBISHI TANABE PHARMA CORPORATION, priority 2009, dated 2015):

Target: human recombinant TPK1 (Homo sapiens, UniProt P49841)
Test: Inhibitory activity against P-GS1 phosphorylation by TPK1 (Kinase Glo luminescence)
Type: biochemical
Conditions: 7.5 μM P-GS1, 10 μM ATP, 25° C. for 16 hours, Kinase Glo Reagent luminescent signal
Method in brief: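 Human recombinant TPK1 phosphorylated 7.5 μM P-GS1 with 10 μM ATP in 100 mM HEPES-NaOH pH 7.2 with Mg, EGTA, DTT, Tween 20 and 1% DMSO final, for 16 h at 25° C. Remaining ATP was read by Kinase Glo luminescence. IC50 was normalised to no-enzyme (0%) and no-compound (100%) controls.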

Sequence of human recombinant TPK1 (P49841 whole entry): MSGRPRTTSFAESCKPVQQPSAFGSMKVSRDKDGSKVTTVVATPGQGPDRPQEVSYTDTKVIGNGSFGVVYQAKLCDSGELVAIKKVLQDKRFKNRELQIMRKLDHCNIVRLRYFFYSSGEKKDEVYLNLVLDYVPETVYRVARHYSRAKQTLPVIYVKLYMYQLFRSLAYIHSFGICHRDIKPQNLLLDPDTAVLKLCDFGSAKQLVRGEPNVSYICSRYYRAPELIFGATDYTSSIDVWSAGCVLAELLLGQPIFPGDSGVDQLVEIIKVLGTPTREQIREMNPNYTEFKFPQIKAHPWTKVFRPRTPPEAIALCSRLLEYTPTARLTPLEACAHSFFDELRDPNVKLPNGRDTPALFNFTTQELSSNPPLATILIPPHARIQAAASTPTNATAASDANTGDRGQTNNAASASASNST

- IC50: 12.9 nM
SMILES: Cc1noc(-c2ccc(C3COCCN(c4nc(-c5ccncn5)cc(=O)n4C)C3)cc2)n1 (stereo not shown) [Compound A081, 2-[6-[4-(3-methyl-1,2,4-oxadiazol-5-yl)-phenyl]-1,4-oxazepan-4-yl]-3-methyl-6-(pyrimidin-4-yl)pyrimidin-4(3H)-one]
